# Experimental data: ChEMBL document CHEMBL4229418, “Design, synthesis and pharmacology of aortic-selective acyl-CoA: Cholesterol O-acyltransferase (ACAT/SOAT) inhibitors” (Bioorg Med Chem, 2018)
# What was measured:
# Hamster [1] = experiment: Toxicity in Bio F1B hamster model of diet-induced atherosclerosis assessed as adrenal free cholesterol level at 30 mg/kg/day added to chow pellets (reference value: 4.65 mg/dl); type: organism-based; settings: cricetinae, in vivo
# Hamster [2] = experiment: Toxicity in Bio F1B hamster model of diet-induced atherosclerosis assessed as adrenal free cholesterol level at 3 mg/kg/day added to chow pellets (reference value: 4.65 mg/dl); type: organism-based; settings: cricetinae, in vivo
# Hamster [3] = experiment: Antiatherosclerotic activity in Bio F1B hamster model of diet-induced atherosclerosis assessed as liver cholesterol ester level at 1 mg/kg/day added to chow pellets (reference value: 24.04 mg/dl); type: functional, Cricetinae
# Hamster [4] = experiment: Antiatherosclerotic activity in Bio F1B hamster model of diet-induced atherosclerosis assessed as reduction in lipid accumulation areas in aortic arch at 1 mg/kg/day added to chow pellets by oil red O staining based assay relative to control; type: functional; settings: Cricetinae
# [5] = Tmax in non-fasted Sprague-Dawley rat at 30 mg/kg, po by LC-MS/MS analysis; type: ADME, organism-based; settings: in vivo
# Hamster [6] = experiment: Effect on lipid composition in Bio F1B hamster model of diet-induced atherosclerosis assessed as adrenal total cholesterol level at 1 mg/kg/day added to chow pellets (reference value: 10.54 mg/dl); type: functional, Cricetinae
# [7] = Tmax in non-fasted Beagle dog at 30 mg/kg, po by LC-MS/MS analysis; type: ADME, organism-based, Canis lupus familiaris; settings: in vivo
# Hamster [8] = experiment: Antiatherosclerotic activity in Bio F1B hamster model of diet-induced atherosclerosis assessed as intestinal cholesterol ester level at 1 mg/kg/day added to chow pellets (reference value: 1.09 mg/dl); type: functional, Cricetinae
# [9] = Cmax in non-fasted Beagle dog at 30 mg/kg, po by LC-MS/MS analysis; type: ADME, organism-based, Canis lupus familiaris; design: dose 30 mg/kg, route oral; settings: in vivo
# Hamster [10] = experiment: Antiatherosclerotic activity in Bio F1B hamster model of diet-induced atherosclerosis assessed as intestinal free cholesterol level at 10 mg/kg/day added to chow pellets (reference value: 3.41 mg/dl); type: functional, Cricetinae
# Hamster [11] = experiment: Antiatherosclerotic activity in Bio F1B hamster model of diet-induced atherosclerosis assessed as liver free cholesterol level at 30 mg/kg/day added to chow pellets (reference value: 7.94 mg/dl); type: functional, Cricetinae
# Hamster [12] = experiment: Antiatherosclerotic activity in Bio F1B hamster model of diet-induced atherosclerosis assessed as intestinal free cholesterol level at 1 mg/kg/day added to chow pellets (reference value: 3.41 mg/dl); type: functional, Cricetinae
# Hamster [13] = experiment: Antiatherosclerotic activity in Bio F1B hamster model of diet-induced atherosclerosis assessed as liver free cholesterol level at 3 mg/kg/day added to chow pellets (reference value: 7.94 mg/dl); type: functional, Cricetinae
# Hamster [14] = experiment: Effect on lipid composition in Bio F1B hamster model of diet-induced atherosclerosis assessed as intestine total cholesterol level at 1 mg/kg/day added to chow pellets (reference value: 4.51 mg/dl); type: functional, Cricetinae
# [15] = AUC (0 to 8 hrs) in fasted Beagle dog at 30 mg/kg, po by LC-MS/MS analysis; type: ADME, organism-based, Canis lupus familiaris; design: dose 30 mg/kg, time < 8 hr, route oral; settings: in vivo
# Hamster [16] = experiment: Antiatherosclerotic activity in Bio F1B hamster model of diet-induced atherosclerosis assessed as adrenal cholesterol ester level at 10 mg/kg/day added to chow pellets (reference value: 5.88 mg/dl); type: functional, Cricetinae
# Hamster [17] = experiment: Antiatherosclerotic activity in Bio F1B hamster model of diet-induced atherosclerosis assessed as plasma free cholesterol level at 1 mg/kg/day added to chow pellets (reference value: 780.8 mg/dl); type: functional, Cricetinae
# [18] = AUC (0 to 8 hrs) in non-fasted Beagle dog at 30 mg/kg, po by LC-MS/MS analysis; type: ADME, organism-based, Canis lupus familiaris; design: time < 8 hr, dose 30 mg/kg, route oral; settings: in vivo
# Hamster [19] = experiment: Antiatherosclerotic activity in Bio F1B hamster model of diet-induced atherosclerosis assessed as liver cholesterol ester level at 3 mg/kg/day added to chow pellets (reference value: 24.04 mg/dl); type: functional, Cricetinae
# [20] = Tmax in fasted Beagle dog at 30 mg/kg, po by LC-MS/MS analysis; type: ADME, organism-based, Canis lupus familiaris; settings: in vivo
# Hamster [21] = experiment: Effect on lipid composition in Bio F1B hamster model of diet-induced atherosclerosis assessed as liver total cholesterol level at 30 mg/kg/day added to chow pellets (reference value: 31.99 mg/dl); type: functional, Cricetinae
# Hamster [22] = experiment: Toxicity in Bio F1B hamster model of diet-induced atherosclerosis assessed as adrenal free cholesterol level at 10 mg/kg/day added to chow pellets (reference value: 4.65 mg/dl); type: organism-based; settings: cricetinae, in vivo
# Hamster [23] = experiment: Antiatherosclerotic activity in Bio F1B hamster model of diet-induced atherosclerosis assessed as liver cholesterol ester level at 30 mg/kg/day added to chow pellets (reference value: 24.04 mg/dl); type: functional, Cricetinae
# Hamster [24] = experiment: Antiatherosclerotic activity in Bio F1B hamster model of diet-induced atherosclerosis assessed as intestinal cholesterol ester level at 30 mg/kg/day added to chow pellets (reference value: 1.09 mg/dl); type: functional, Cricetinae
# Hamster [25] = experiment: Antiatherosclerotic activity in Bio F1B hamster model of diet-induced atherosclerosis assessed as plasma cholesterol ester level at 1 mg/kg/day added to chow pellets (reference value: 1379.3 mg/dl); type: functional, Cricetinae
# Hamster [26] = experiment: Antiatherosclerotic activity in Bio F1B hamster model of diet-induced atherosclerosis assessed as adrenal cholesterol ester level at 1 mg/kg/day added to chow pellets (reference value: 5.88 mg/dl); type: functional, Cricetinae
# Hamster [27] = experiment: Toxicity in Bio F1B hamster model of diet-induced atherosclerosis assessed as plasma total cholesterol level at 10 mg/kg/day added to chow pellets (reference value: 2160.1 mg/dl); type: organism-based; settings: cricetinae, in vivo
# Hamster [28] = experiment: Toxicity in Bio F1B hamster model of diet-induced atherosclerosis assessed as plasma total cholesterol level at 30 mg/kg/day added to chow pellets (reference value: 2160.1 mg/dl); type: organism-based; settings: cricetinae, in vivo
# Hamster [29] = experiment: Antiatherosclerotic activity in Bio F1B hamster model of diet-induced atherosclerosis assessed as adrenal cholesterol ester level at 30 mg/kg/day added to chow pellets (reference value: 5.88 mg/dl); type: functional, Cricetinae
# Hamster [30] = experiment: Antiatherosclerotic activity in Bio F1B hamster model of diet-induced atherosclerosis assessed as plasma cholesterol ester level at 3 mg/kg/day added to chow pellets (reference value: 1379.3 mg/dl); type: functional, Cricetinae
# Hamster [31] = experiment: Antiatherosclerotic activity in Bio F1B hamster model of diet-induced atherosclerosis assessed as plasma free cholesterol level at 10 mg/kg/day added to chow pellets (reference value: 780.8 mg/dl); type: functional, Cricetinae
# Hamster [32] = experiment: Effect on lipid composition in Bio F1B hamster model of diet-induced atherosclerosis assessed as intestine total cholesterol level at 10 mg/kg/day added to chow pellets (reference value: 4.51 mg/dl); type: functional, Cricetinae
# Hamster [33] = experiment: Effect on lipid composition in Bio F1B hamster model of diet-induced atherosclerosis assessed as adrenal total cholesterol level at 10 mg/kg/day added to chow pellets (reference value: 10.54 mg/dl); type: functional, Cricetinae
# [34] = Cmax in fasted Beagle dog at 30 mg/kg, po by LC-MS/MS analysis; type: ADME, organism-based, Canis lupus familiaris; design: dose 30 mg/kg, route oral; settings: in vivo
# Hamster [35] = experiment: Antiatherosclerotic activity in Bio F1B hamster model of diet-induced atherosclerosis assessed as liver free cholesterol level at 1 mg/kg/day added to chow pellets (reference value: 7.94 mg/dl); type: functional, Cricetinae
structure (smiles),measurement,setting,value
CC(C)c1cccc(C(C)C)c1NC(=O)CCCCCCCCSc1nc2ccccc2o1,Activity,Hamster [1],2.4 mg/dL
same,Activity,Hamster [2],4.05 mg/dL
same,Activity,Hamster [3],22.81 mg/dL
same,inhibition in vivo at 1 mg/kg/day,Hamster [4],74%
same,Tmax,[5],3.2 h
same,Activity,Hamster [6],11.13 mg/dL
same,Tmax,[7],3 h
same,Activity,Hamster [8],0.98 mg/dL
same,Cmax,[9],582 ng/mL
same,Activity,Hamster [10],3.82 mg/dL
same,Activity,Hamster [11],2.43 mg/dL
same,Activity,Hamster [12],3.43 mg/dL
same,Activity,Hamster [13],5.95 mg/dL
same,Activity,Hamster [14],4.4 mg/dL
same,AUC(0-t) at 8 h,[15],14 ng·h/mL
same,Activity,Hamster [16],3.5 mg/dL
same,Activity,Hamster [17],828.2 mg/dL
same,AUC(0-t) at 8 h,[18],2960 ng·h/mL
same,Activity,Hamster [19],17.67 mg/dL
same,Tmax,[20],1 h
same,Activity,Hamster [21],3.03 mg/dL
same,Activity,Hamster [22],3.5 mg/dL
same,Activity,Hamster [23],0.69 mg/dL
same,Activity,Hamster [24],0.24 mg/dL
same,Activity,Hamster [25],1512.6 mg/dL
same,Activity,Hamster [26],6.72 mg/dL
same,Activity,Hamster [27],1291.7 mg/dL
same,Activity,Hamster [28],476.3 mg/dL
same,Activity,Hamster [29],1.08 mg/dL
same,Activity,Hamster [30],1439.6 mg/dL
same,Activity,Hamster [31],491.9 mg/dL
same,Activity,Hamster [32],4.07 mg/dL
same,Activity,Hamster [33],7 mg/dL
same,Cmax,[34],5 ng/mL
same,Activity,Hamster [35],7.94 mg/dL
